Results published in ChEMBL document CHEMBL1201862, “PubChem BioAssay data set” (2004).
“And” between values parts separate entries of the source, which are not always exact repeats. Identical values can stand only once.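 These data come from cells grown in 96-well plates and exposed to compound for 48 hours at five concentrations. Abbreviation: GI50, concentration required for 50% inhibition of growth.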 The source made the active and inactive calls. Cut-off read from the data, not from the text of the source: active = GI50 up to about 1.1 µM and inactive = higher.

Legend:
Test in all cases: DTP human tumour cell line panel, 48 h
NCI-H522 = tested on: NCI-H522
ACHN = tested on: ACHN
SN12C = tested on: SN12C
CAKI-1 = tested on: CAKI-1
HCT-116 = tested on: HCT-116
SR = tested on: SR
IGROV-1 = tested on: IGROV-1
SNB-19 = tested on: SNB-19
RXF 393 = tested on: RXF 393
Malme-3M = tested on: Malme-3M
COLO 205 = tested on: COLO 205
DLD-1 = tested on: DLD-1
UACC-257 = tested on: UACC-257
LOX IMVI = tested on: LOX IMVI
KM12 = tested on: KM12
A549 = tested on: A549
SW-620 = tested on: SW-620
DU-145 = tested on: DU-145
Hs-578T = tested on: Hs-578T
MDA-MB-231 = tested on: MDA-MB-231

Compound | GI50 (NCI-H522) | GI50 (ACHN) | GI50 (SN12C) | GI50 (CAKI-1) | GI50 (HCT-116) | GI50 (SR) | GI50 (IGROV-1) | GI50 (SNB-19) | GI50 (RXF 393) | GI50 (Malme-3M) | GI50 (COLO 205) | GI50 (DLD-1) | GI50 (UACC-257) | GI50 (LOX IMVI) | GI50 (KM12) | GI50 (A549) | GI50 (SW-620) | GI50 (DU-145) | GI50 (Hs-578T) | GI50 (MDA-MB-231)
COc1ccc(C(=O)CC(=O)C(=O)Nc2ccc(C)c(C)c2)cc1 | 68.9 µM (inactive) | > 100 µM (inactive) | > 91.6 µM (inactive) | > 100 µM (inactive) | 43.8 µM (inactive) | > 100 µM (inactive) | > 93.3 µM (inactive) | > 100 µM (inactive) | > 54.5 µM (inactive) | > 100 µM (inactive) | > 51.9 µM (inactive) | 61.8 µM (inactive) | > 100 µM (inactive) | 23.7 µM (inactive) | > 100 µM (inactive) | > 91.8 µM (inactive) | 28.4 µM (inactive) |  |  | 
CCCCCCC(=O)CC(=O)C(=O)Nc1ccccc1C | > 68.5 µM (inactive) | > 100 µM (inactive) | > 100 µM (inactive) | > 100 µM (inactive) | > 100 µM (inactive) | > 100 µM (inactive) | > 100 µM (inactive) | > 100 µM (inactive) | > 100 µM (inactive) | > 100 µM (inactive) | > 57.1 µM (inactive) | > 67.5 µM (inactive) | > 100 µM (inactive) | > 43 µM (inactive) | > 100 µM (inactive) | > 100 µM (inactive) | > 39.7 µM (inactive) |  |  | 
COc1ccc(-c2c(C3=NCCN3)nnn2-c2ccccc2)cc1 | > 100 µM (inactive) | > 100 µM (inactive) | > 100 µM (inactive) | > 100 µM (inactive) | 99.1 µM (inactive) | 89.9 µM (inactive) | > 100 µM (inactive) | > 100 µM (inactive) | > 100 µM (inactive) | > 100 µM (inactive) | 98.9 µM (inactive) | > 100 µM (inactive) | > 100 µM (inactive) | > 100 µM (inactive) | > 100 µM (inactive) | > 100 µM (inactive) | > 100 µM (inactive) |  |  | 
COc1cc2c(cc1OC)C(SC)C(=O)N(Cc1cccc(OC)c1OC)CC2 (stereo unspecified) | 0.64 µM (active) | 5.04 µM (inactive) | 5.61 µM (inactive) | 13.6 µM (inactive) | 1.92 µM (inactive) | 0.912 µM (active) | 2.77 µM (inactive) | 8.75 µM (inactive) | 1.79 µM (inactive) | 3.15 µM (inactive) | 2.74 µM (inactive) | 2.01 µM (inactive) | 2.95 µM (inactive) | 2.1 µM (inactive) | 2.65 µM (inactive) | 1.73 µM (inactive) | 1.49 µM (inactive) | 2.51 µM (inactive) | 2.66 µM (inactive) | 5.48 µM (inactive)
COC1(OC)C2(Cl)C3=CCCC=C3C1(Cl)C(Cl)=C2Cl | 12.9 µM (inactive) | 28 µM (inactive) | 28.7 µM (inactive) | 18.9 µM (inactive) | 17.1 µM (inactive) | 18.1 µM (inactive) | 36.5 µM (inactive) | 26.1 µM (inactive) | 13.9 µM (inactive) | 16.7 µM (inactive) | 18.6 µM (inactive) | 28.9 µM (inactive) | 28.4 µM (inactive) | 15.3 µM (inactive) | 34.3 µM (inactive) | 27.2 µM (inactive) | 17.5 µM (inactive) |  |  | 
NC1=NC(=O)/C(=C2\CCNC(=O)c3[nH]c(Br)cc32)N1 [HYMENIALDISINE] |  | 45.3 µM (inactive) | 19.5 µM (inactive) and 11.3 µM (inactive) |  | 7.16 µM (inactive) and 5.57 µM (inactive) | 0.303 µM (active) |  | 39.1 µM (inactive) and 48.2 µM (inactive) | 29.7 µM (inactive) and 34.6 µM (inactive) |  |  | 37.6 µM (inactive) | 23.7 µM (inactive) and 18.3 µM (inactive) | 4.89 µM (inactive) and 4.57 µM (inactive) |  | > 70.3 µM (inactive) |  | 39.6 µM (inactive) | 38.6 µM (inactive) | 4.66 µM (inactive)
